In ChEMBL document CHEMBL1130150, “Conformationally restricted analogues of trimethoprim: 2,6-diamino-8-substituted purines as potential dihydrofolate reductase inhibitors from Pneumocystis carinii and Toxoplasma gondii” (J Med Chem, 1997):
pIC50: −log10 of the molar value.

Assays:
Dihydrofolate reductase [1] = molecular target: T1, Dihydrofolate reductase (Rattus norvegicus, UniProt Q920D2)
T1 sequence (Q920D2 whole entry): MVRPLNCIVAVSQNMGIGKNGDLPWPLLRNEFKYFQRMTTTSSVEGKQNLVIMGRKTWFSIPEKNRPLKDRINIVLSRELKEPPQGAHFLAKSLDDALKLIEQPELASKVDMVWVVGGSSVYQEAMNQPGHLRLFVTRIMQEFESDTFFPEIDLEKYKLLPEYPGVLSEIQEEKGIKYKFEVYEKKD
Description: Inhibition of rat liver dihydrofolate reductase

[2] = molecular target: T2, Bifunctional dihydrofolate reductase-thymidylate synthase (Toxoplasma gondii, UniProt Q07422); assay: Inhibition of Toxoplasma gondii dihydrofolate reductase
T2 sequence (Q07422 whole entry): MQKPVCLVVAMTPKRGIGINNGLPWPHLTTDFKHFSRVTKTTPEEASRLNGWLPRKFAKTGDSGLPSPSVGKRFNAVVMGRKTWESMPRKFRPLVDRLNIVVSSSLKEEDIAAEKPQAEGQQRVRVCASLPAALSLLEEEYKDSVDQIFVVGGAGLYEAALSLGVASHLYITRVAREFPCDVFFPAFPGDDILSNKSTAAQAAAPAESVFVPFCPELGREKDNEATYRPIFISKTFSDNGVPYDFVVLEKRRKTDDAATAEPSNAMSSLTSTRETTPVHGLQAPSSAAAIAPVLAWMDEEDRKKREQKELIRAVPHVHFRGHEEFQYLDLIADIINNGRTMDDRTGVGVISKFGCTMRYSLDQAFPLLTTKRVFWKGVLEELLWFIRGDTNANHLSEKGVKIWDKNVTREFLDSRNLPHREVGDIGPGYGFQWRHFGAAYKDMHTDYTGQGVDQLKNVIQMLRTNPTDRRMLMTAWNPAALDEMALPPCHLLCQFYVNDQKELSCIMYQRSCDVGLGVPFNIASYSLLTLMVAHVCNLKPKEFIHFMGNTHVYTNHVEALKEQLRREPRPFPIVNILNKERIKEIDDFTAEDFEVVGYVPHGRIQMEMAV

Dihydrofolate reductase [3] = molecular target: T3, Dihydrofolate reductase (Pneumocystis carinii, UniProt P16184)
T3 sequence (P16184 whole entry): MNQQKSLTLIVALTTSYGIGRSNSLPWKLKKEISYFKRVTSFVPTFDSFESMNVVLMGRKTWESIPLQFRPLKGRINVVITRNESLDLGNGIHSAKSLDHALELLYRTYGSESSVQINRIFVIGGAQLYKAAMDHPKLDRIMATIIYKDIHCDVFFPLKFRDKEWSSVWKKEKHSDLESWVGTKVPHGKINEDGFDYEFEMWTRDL
Description: Inhibition of Pneumocystis carinii dihydrofolate reductase

[4] = molecular target: T4, Dihydrofolate reductase (Rattus norvegicus) (UniProt Q920D2); assay: Percent inhibition against rat liver Dihydrofolate reductase; design: concentration or dose not given beside the values; settings: concentration not given here
T4 sequence (whole entry): T1 sequence (Q920D2 whole entry)

[5] = molecular target: T5, Bifunctional dihydrofolate reductase-thymidylate synthase (Toxoplasma gondii) (UniProt Q07422); assay: Percent inhibition against Toxoplasma gondii Dihydrofolate reductase; settings: concentration not given here
T5 sequence (whole entry): T2 sequence (Q07422 whole entry)

Compound: Nc1nc(N)c2nc(-c3ccccc3)[nH]c2n1
- pIC50 (Dihydrofolate reductase [1]): 4.22
- pIC50 [2]: 4.55
- pIC50 (Dihydrofolate reductase [3]): 3.82

Compound: COc1cc(-c2nc3[nH]c(N)nc(N)c-3n2)c([N+](=O)[O-])cc1OC
- inhibition [4]: 14%

Compound: COc1ccc(OC)c(-c2nc3nc(N)nc(N)c3[nH]2)c1
- pIC50 (Dihydrofolate reductase [1]): 5.46
- pIC50 [2]: 5.77
- pIC50 (Dihydrofolate reductase [3]): 4.43

Compound: COc1cc(OC)c(-c2nc3nc(N)nc(N)c3[nH]2)cc1OC
- pIC50 (Dihydrofolate reductase [1]): 5.15
- pIC50 [2]: 5.82
- pIC50 (Dihydrofolate reductase [3]): 4.66

Compound: Nc1nc(N)c2nc(C3c4ccccc4-c4ccccc43)[nH]c2n1
- pIC50 (Dihydrofolate reductase [3]): 4.46

Compound: COc1cc(OC)c(-c2nc3nc(N)nc(N)c3[nH]2)c(OC)c1
- pIC50 (Dihydrofolate reductase [1]): 5.73
- pIC50 [2]: 6.08
- pIC50 (Dihydrofolate reductase [3]): 4.50

Compound: COc1cc(-c2nc3nc(N)nc(N)c3[nH]2)cc(OC)c1OC
- pIC50 (Dihydrofolate reductase [1]): 4.89
- pIC50 [2]: 5.66
- pIC50 (Dihydrofolate reductase [3]): 4.23

Compound: COc1cc(-c2nc3nc(N)nc(N)c3[nH]2)c([N+](=O)[O-])cc1OC
- pIC50 (Dihydrofolate reductase [1]): 4.60
- pIC50 (Dihydrofolate reductase [3]): 4.60

Compound: COc1ccc(OC)c(NCc2nc3c(N)nc(N)nc3[nH]2)c1
- inhibition [4]: 15%
- pIC50 (Dihydrofolate reductase [1]): 4.54
- pIC50 [2]: 4.31
- pIC50 (Dihydrofolate reductase [3]): 4.54

Compound: Nc1nc(N)c2[nH]c(-c3ccncc3)nc2n1
- inhibition [5]: 14%
- inhibition [4]: 0%
- pIC50 (Dihydrofolate reductase [1]): 4.74
- pIC50 [2]: 4.70
- pIC50 (Dihydrofolate reductase [3]): 4.74

Compound: Nc1nc(N)c2[nH]c(-c3ccc(Cl)c(Cl)c3)nc2n1
- pIC50 (Dihydrofolate reductase [1]): 3.60
- pIC50 [2]: 5.17

Compound: COc1ccc(-c2nc3c(N)nc(N)nc3[nH]2)c(OC)c1OC
- pIC50 (Dihydrofolate reductase [1]): 5.43
- pIC50 [2]: 5.74
- pIC50 (Dihydrofolate reductase [3]): 4.77

Compound: Nc1nc(N)c2nc(Cc3ccccc3)[nH]c2n1
- pIC50 (Dihydrofolate reductase [1]): 5.80
- pIC50 [2]: 6.30

Compound: COc1ccc(-c2nc3c(N)nc(N)nc3[nH]2)cc1OC
- pIC50 (Dihydrofolate reductase [1]): 4.28
- pIC50 (Dihydrofolate reductase [3]): 4.92

Compound: Nc1nc(N)c2[nH]c(-c3c(Cl)cccc3Cl)nc2n1
- inhibition [5]: 6%
- inhibition [4]: 4%
- pIC50 (Dihydrofolate reductase [1]): 4.96
- pIC50 [2]: 4.96
- pIC50 (Dihydrofolate reductase [3]): 4.96

Compound: COc1cc(OC)cc(-c2nc3nc(N)nc(N)c3[nH]2)c1
- pIC50 (Dihydrofolate reductase [1]): 4.49
- pIC50 [2]: 5.52

Compound: Nc1nc(N)c2[nH]c(CSc3ccc4ccccc4c3)nc2n1
- pIC50 (Dihydrofolate reductase [1]): 3.97
- pIC50 [2]: 4.35
- pIC50 (Dihydrofolate reductase [3]): 3.98

Compound: Nc1nc(N)c2nc(-c3ccc4ccccc4c3)[nH]c2n1
- pIC50 (Dihydrofolate reductase [1]): 3.55
- pIC50 [2]: 4.57
- pIC50 (Dihydrofolate reductase [3]): 3.95

Compound: Nc1nc(N)c2[nH]c(-c3ccc(-c4ccccc4)cc3)nc2n1
- pIC50 (Dihydrofolate reductase [1]): 4.52
- pIC50 [2]: 4.48
- pIC50 (Dihydrofolate reductase [3]): 3.22

Compound: COc1ccc(-c2nc3[nH]c(N)nc(N)c-3n2)c2ccccc12
- inhibition [5]: 10%
- inhibition [4]: 15%
- pIC50 (Dihydrofolate reductase [1]): 4.89
- pIC50 [2]: 4.89
- pIC50 (Dihydrofolate reductase [3]): 4.89

Compound: COc1ccc(-c2nc3nc(N)nc(N)c3[nH]2)c(OC)c1
- pIC50 (Dihydrofolate reductase [1]): 6.05
- pIC50 [2]: 5.62
- pIC50 (Dihydrofolate reductase [3]): 4.85

Compound: COc1cc(-c2nc3c(N)nc(N)nc3[nH]2)cc(OC)c1O
- pIC50 (Dihydrofolate reductase [1]): 4.82
- pIC50 [2]: 6.00
- pIC50 (Dihydrofolate reductase [3]): 4.17

Compound: COc1cc(NCc2nc3[nH]c(N)nc(N)c-3n2)cc(OC)c1OC
- inhibition [5]: 5%
- inhibition [4]: 19%
